Values joined by “and” are separate entries in the source; they are usually repeats but may differ in a detail not shown here. Equal entries are not always repeated. Starred links: 1 amine or outer side, 2 acyl side, 3 side chain; linkers in the order of their positions; H or OH if unused. Positions of bridges follow the written chain, without caps; N, C: chain ends. Non-standard residues stand in square brackets, D forms with d. Residues, ends and D or L forms follow the SMILES beside them. Chains are numbered I, II in the order given. Actinocin(9to1) = Cc1c2oc3c(C)ccc(C(=O)[*:1])c3nc-2c(C(=O)[*:2])c(N)c1=O; aThr = C[C@H](O)[C@H](N)C(=O)O; NMeV = CN[C@H](C(=O)O)C(C)C; Sar = CNCC(=O)O
System: C57BL/6 mice, Adenocarcinoma 755 sc, tumor weight T/C
Experiment: NCI In Vivo Anticancer Drug Screen. Data for tumor model Adenocarcinoma 755 (subcutaneous) in C57BL/6 mice
Settings: endpoint: mean tumor weight, higher = larger tumour
Experimental: The antitumor activity of compounds was measured in mice bearing transplantable tumors. Survival or tumor size were measured and the results are expressed as the measurement made in the treated group (T) divided by the measurement made in the vehicle treated control group (C). The tumor model used in this assay is Adenocarcinoma 755 (subcutaneous) in C57BL/6 mice

[1] = dose: 30.0 mg/kg/injection, schedule: Q01DX011 (ip), vehicle: carboxymethylcellulose (CMC)
[2] = dose: 25.0 mg/kg/injection, schedule: Q01DX011 (ip), vehicle: saline
[3] = dose: 50.0 mg/kg/injection, schedule: Q01DX011 (ip), vehicle: saline
[4] = dose: 100.0 mg/kg/injection, schedule: Q01DX011 (ip), vehicle: saline
[5] = dose: 10.0 mg/kg/injection, schedule: Q01DX011 (ip), vehicle: saline
[6] = dose: 15.0 mg/kg/injection, schedule: Q01DX011 (ip), vehicle: saline
[7] = dose: 40.0 mg/kg/injection, schedule: Q01DX011 (ip), vehicle: carboxymethylcellulose (CMC)
[8] = dose: 40.0 mg/kg/injection, schedule: Q01DX011 (ip), vehicle: saline
[9] = dose: 50.0 mg/kg/injection, schedule: Q01DX011 (ip), vehicle: carboxymethylcellulose (CMC)
[10] = dose: 200.0 mg/kg/injection, schedule: Q01DX011 (ip), vehicle: saline
[11] = dose: 75.0 mg/kg/injection, schedule: Q01DX011 (ip), vehicle: saline
[12] = dose: 2.0 mg/kg/injection, schedule: Q01DX011 (ip), vehicle: carboxymethylcellulose (CMC)
[13] = dose: 25.0 mg/kg/injection, schedule: Q01DX011 (ip), vehicle: carboxymethylcellulose (CMC)

With `CCCCNc1ncnc2nc[nH]c12` the T/C [1] was 91 % of control.
In the case of `Nc1c(Br)cc2c(c1Br)Cc1cc([N+](=O)[O-])ccc1-2`, the T/C (dose: 31.3 mg/kg/injection, schedule: Q01DX011 (ip), vehicle: saline) is reported as 17 % of control and the T/C (dose: 125.0 mg/kg/injection, schedule: Q01DX011 (ip), vehicle: saline) is reported as 17 % of control.
With `CCn1cnc2c(Cl)ncnc21` the T/C [2] was 29 % of control, the T/C [3] was 10 % of control and the T/C [4] was 1 % of control.
For `CSc1nc(N)nc2nc[nH]c12`, the T/C [5] was 1 % of control and the T/C [6] was 1 % of control.
For `NNC(=O)c1nsnc1NC(N)=O`, the T/C (dose: 6.0 mg/kg/injection, schedule: Q01DX011 (ip), vehicle: carboxymethylcellulose (CMC)) was 109 % of control, the T/C (dose: 11.0 mg/kg/injection, schedule: Q01DX011 (ip), vehicle: carboxymethylcellulose (CMC)) was 107 % of control and the T/C (dose: 22.0 mg/kg/injection, schedule: Q01DX011 (ip), vehicle: carboxymethylcellulose (CMC)) was 99 % of control.
For `Cc1c2oc3c(C)ccc(C(=O)N[C@@H]4C(=O)N[C@H](C(C)C)C(=O)N5CCC[C@H]5C(=O)N(C)CC(=O)N(C)[C@@H](C(C)C)C(=O)O[C@H]4C)c3nc-2c(C(=O)N[C@@H]2C(=O)N[C@H](C(C)C)C(=O)N3CCC[C@H]3C(=O)N(C)CC(=O)N(C)[C@@H](C(C)C)C(=O)O[C@H]2C)c(N)c1=O` (I: [aThr][dV]P[Sar][NMeV] / II: [aThr][dV]P[Sar][NMeV]; ester I:1-I:C, II:1-II:C; linker I:N-II:N via Actinocin(9to1)), the T/C (dose: 0.03 mg/kg/injection, schedule: Q01DX011 (ip), vehicle: saline) was 3 % of control.
With `Clc1cc(N2CC2)nc(N2CC2)n1` the T/C (dose: 5.0 mg/kg/injection, schedule: Q02DX006 (ip), vehicle: other) was 79 % of control, the T/C (dose: 7.5 mg/kg/injection, schedule: Q02DX006 (ip), vehicle: other) was 72 % of control and the T/C (dose: 10.0 mg/kg/injection, schedule: Q02DX006 (ip), vehicle: other) was 18 % of control.
In the case of `CCCNc1ncnc2[nH]ncc12`, the T/C [5] is reported as 62 % of control and the T/C [6] is reported as 39 % of control.
In the case of `CSc1ncnc2nc[nH]c12`, the T/C (dose: 1.25 mg/kg/injection, schedule: Q01DX011 (ip), vehicle: carboxymethylcellulose (CMC)) is reported as 16 % of control, the T/C (dose: 2.5 mg/kg/injection, schedule: Q01DX011 (ip), vehicle: carboxymethylcellulose (CMC)) is reported as 8 % of control and the T/C (dose: 7.5 mg/kg/injection, schedule: Q01DX011 (ip), vehicle: saline) is reported as 58 % of control. For the same compound, the T/C [5] was 23 % of control, the T/C [6] was 2 % of control and the T/C (dose: 20.0 mg/kg/injection, schedule: Q01DX011 (ip), vehicle: saline) was 6 % of control and 9 % of control. For the same compound, the T/C [1] was 5 % of control, the T/C (dose: 30.0 mg/kg/injection, schedule: Q01DX011 (ip), vehicle: saline) was 1 % of control and 2 % of control and 9 % of control and the T/C [7] was 2 % of control. For the same compound, the T/C [8] was 3 % of control and the T/C [9] was 3 % of control.
For `CCOC(N)=O`, the T/C [10] was 34 % of control, the T/C (dose: 300.0 mg/kg/injection, schedule: Q01DX011 (ip), vehicle: saline) was 38 % of control and the T/C (dose: 400.0 mg/kg/injection, schedule: Q01DX011 (ip), vehicle: saline) was 20 % of control. The T/C (dose: 500.0 mg/kg/injection, schedule: Q02DX006 (ip), vehicle: water) was 49 % of control, the T/C (dose: 600.0 mg/kg/injection, schedule: Q01DX011 (ip), vehicle: saline) was 3 % of control and the T/C (dose: 600.0 mg/kg/injection, schedule: Q02DX006 (ip), vehicle: water) was 34 % of control.
In the case of `O=c1[nH]c(=O)n(C2CC(O)C(CO)O2)cc1C(F)(F)F` (centres undefined), the T/C (dose: 12.5 mg/kg/injection, schedule: Q01DX011 (ip), vehicle: saline) is reported as 81 % of control, the T/C [2] is reported as 52 % of control and the T/C [3] is reported as 27 % of control. For the same compound, the T/C [4] was 27 % of control.
For `CCc1nc(N)nc(N)c1-c1ccc(Cl)cc1`, the T/C [3] was 67 % of control.
With `Clc1ccccc1CSc1ncnc2nc[nH]c12` the T/C [11] was 13 % of control, the T/C [4] was 5 % of control and the T/C (dose: 150.0 mg/kg/injection, schedule: Q01DX011 (ip), vehicle: saline) was 1 % of control. For the same compound, the T/C [10] was 13 % of control.
`O=CNC(Cc1ccc(N(CCCl)CCCl)cc1)C(=O)O` (centres undefined) was tested, and the T/C [7] was 39 % of control and the T/C (dose: 80.0 mg/kg/injection, schedule: Q01DX011 (ip), vehicle: carboxymethylcellulose (CMC)) was 1 % of control.
For `CN1CC(=O)N=C1N`, the T/C (dose: 1000.0 mg/kg/injection, schedule: Q01DX011 (ip), vehicle: saline) was 121 % of control.
With `NC(=O)c1ccc(N)nc1` the T/C (dose: 1.0 mg/kg/injection, schedule: Q01DX011 (ip), vehicle: saline) was 92 % of control and 94 % of control, the T/C (dose: 1.5 mg/kg/injection, schedule: Q01DX011 (ip), vehicle: saline) was 52 % of control and the T/C (dose: 2.0 mg/kg/injection, schedule: Q01DX011 (ip), vehicle: saline) was 48 % of control.
For `Nc1nc(F)nc2c1ncn2C1OC(CO)C(O)C1O` (centres undefined), the T/C [12] was 87 % of control.
`c1cn[nH]c1` was tested, and the T/C (dose: 8.0 mg/kg/injection, schedule: Q01DX006 (iv), vehicle: saline) was 64 % of control, the T/C (dose: 12.5 mg/kg/injection, schedule: Q01DX011 (oral), vehicle: saline) was 61 % of control and the T/C (dose: 25.0 mg/kg/injection, schedule: Q01DX011 (oral), vehicle: saline) was 45 % of control. The T/C (dose: 32.0 mg/kg/injection, schedule: Q01DX006 (iv), vehicle: saline) was 94 % of control, the T/C (dose: 50.0 mg/kg/injection, schedule: Q01DX011 (oral), vehicle: saline) was 9 % of control and the T/C (dose: 64.0 mg/kg/injection, schedule: Q01DX006 (iv), vehicle: saline) was 53 % of control.
In the case of `NNc1nc2nc[nH]c2c(=O)[nH]1`, the T/C [3] is reported as 35 % of control.
For `O=P1(N(CCF)CCF)NCCCO1` (centres undefined), the T/C (dose: 0.94 mg/kg/injection, schedule: Q01DX011 (ip), vehicle: saline) was 40 % of control, the T/C (dose: 1.88 mg/kg/injection, schedule: Q01DX011 (ip), vehicle: saline) was 56 % of control and the T/C (dose: 3.75 mg/kg/injection, schedule: Q01DX011 (ip), vehicle: saline) was 22 % of control.
With `Cc1ccc(N2CCN(CCCN3CCN(c4ccc(Cl)cc4)CC3)CC2)cc1` the T/C (dose: 3.1 mg/kg/injection, schedule: Q01DX011 (ip), vehicle: carboxymethylcellulose (CMC)) was 93 % of control, the T/C (dose: 6.25 mg/kg/injection, schedule: Q01DX011 (ip), vehicle: carboxymethylcellulose (CMC)) was 83 % of control and the T/C (dose: 12.5 mg/kg/injection, schedule: Q01DX011 (ip), vehicle: carboxymethylcellulose (CMC)) was 90 % of control. The T/C [13] was 52 % of control and the T/C [9] was 43 % of control.
For `O=C(O)C(=O)CF`, the T/C [3] was 63 % of control.
`CC1CN1P(=S)(N1CC1C)N1CC1C` (centres undefined) was tested, and the T/C (dose: 1.25 mg/kg/injection, schedule: Q01DX011 (ip), vehicle: saline) was 67 % of control, the T/C (dose: 2.5 mg/kg/injection, schedule: Q01DX011 (ip), vehicle: saline) was 78 % of control and the T/C (dose: 5.0 mg/kg/injection, schedule: Q01DX011 (ip), vehicle: saline) was 91 % of control. The T/C [5] was 73 % of control.
In the case of `c1ccc(Sc2ncnc3nc[nH]c23)cc1`, the T/C [3] is reported as 15 % of control, the T/C [11] is reported as 14 % of control and the T/C [4] is reported as 5 % of control.
`Nc1nc(=S)c2ncn(C3OC(CO)C(O)C3O)c2[nH]1` (centres undefined) was tested, and the T/C (dose: 0.5 mg/kg/injection, schedule: Q01DX011 (ip), vehicle: carboxymethylcellulose (CMC)) was 48 % of control, the T/C (dose: 1.0 mg/kg/injection, schedule: Q01DX011 (ip), vehicle: carboxymethylcellulose (CMC)) was 13 % of control and the T/C [12] was 2 % of control.
`Cn1ncc2c(N)ncnc21` was tested, and the T/C (dose: 20.0 mg/kg/injection, schedule: Q02DX006 (ip), vehicle: other) was 47 % of control and the T/C (dose: 40.0 mg/kg/injection, schedule: Q02DX006 (ip), vehicle: other) was 28 % of control.
In the case of `CCCCNc1ncnc2c1cnn2C`, the T/C [8] is reported as 3 % of control and the T/C [3] is reported as 13 % of control.
For `Clc1ncnc2c1ncn2C1CCCC1`, the T/C [13] was 79 % of control, the T/C [9] was 118 % of control and the T/C (dose: 75.0 mg/kg/injection, schedule: Q01DX011 (ip), vehicle: carboxymethylcellulose (CMC)) was 71 % of control. The T/C (dose: 100.0 mg/kg/injection, schedule: Q01DX011 (ip), vehicle: carboxymethylcellulose (CMC)) was 18 % of control.

From PubChem BioAssay AID218 (DTP/NCI, 2004)
